Experiment [1] has as its system MRSA 19615. In words: Minimum inhibitory concentration (broth microdilution) and FIC index. Conditions: Staphylococcus aureus, MRSA, read-out: Minimum inhibitory concentration. Format: cell-based, Staphylococcus aureus. The method, then:
(§1) A serial of twofold dilution of the tested antibiotics (oxacillin, erythromycin, ampicillin, kanamycin, levofoxacin, vancomycin and doxycycline) was perform by Broth microdilution method to a final concentration of 2-512 μg/mL. The bacterial overnight culture was collected and re-suspended in the Muller-Hilton (M-H) broth. An aliquot of cell suspension (OD600=0.1) was prepared. The bacterial suspensions were plated in 96-well plate and incubated with test antibiotics at 37° C. in a 5% CO2 incubator (Table 1 to Table 4).
(§2) The […], […] and antagonism between two drugs was evaluated by the following formula:
(§3) [formula] The criteria of fractional inhibitory concentration index: […]

For experiment [2], the system named is MRSA 18631. Described as above. Conditions: Staphylococcus aureus, MRSA, read-out: Minimum inhibitory concentration. Format: cell-based, Staphylococcus aureus. The protocol: as §1, §2, §3
The test system of experiment [3] is MRSA 18271. The experiment is described as above. Format: cell-based, Staphylococcus aureus. To be noted: Staphylococcus aureus, MRSA, read-out: Minimum inhibitory concentration. The protocol:
as §1, §2, §3

Experiment [4] deals with MSSA (Methicillin-susceptible Staphylococcus aureus). The description is as above. Format: cell-based. Conditions: Staphylococcus aureus, MSSA, read-out: Minimum inhibitory concentration. The protocol:
as §1, §2, §3

Experiment [5] relates to K-562 cells. In words: DNA ladder test. Format: cell-based, human. Conditions: 48 hours, different concentrations. The method, then:
K-562 cells treated with Tellimagrandin II were collected for electrophoresis to identify any DNA fragmentation.
A total of 3 mL cell solution at the concentration of 1×10^6 K-562 cells per mL was cultured with 6 cm cell culture plates in an incubator supplied with 5% CO2 at 37° C. for 30 minutes so that cells could adapt to the environment. Tellimagrandin II solutions of different concentrations were added by order so that the final concentrations are 0, 20, 30, 40, 50 and 60 μM respectively. The solution was placed in incubator with 5% CO2 at 37° C. for 48 hours before being centrifuged at 2,500 rpm at 4° C. for 5 minutes. After removing the supernatant, it's rinsed by PBS once. Then, cell lysis buffer 100 μL (1% NP-40 dissolved in […], pH 8.0) was added and the solution was shaken at high speed for 10 seconds.
The solution was centrifuged at 3,500 rpm for 5 minutes before 90 μL supernatant was collected and mixed properly with SDS solution 10 μL. RNase A (4 mg/mL) 50 μL was added into the mixed solution then placed in water bath at 56° C. for one hour to remove RNA. Proteinase K (10 mg/mL) 30 μL was then added before another one hour in the water bath at 56° C. to remove protein. […]

The subject of experiment [6] is K-562 cells. In words: Cell cycle analyses by flow cytometry. Format: cell-based, human. To be noted: 0-50 μM. The method, then:
K-562 cells were plated in 15 cm dish at a density of 5×10^5 cells/mL (15 mL) and incubated at 37° C. with 5% CO2 for 16˜18 hours. Cells were collected and centrifuged at 700 rpm for 3 minutes at room temperature, and resuspended in culture medium containing 0.04% fetal bovine serum and 8 mM L-glutamine. Then, cells were incubated at 37° C. with 5% CO2 for 16˜18 hours.
Collected above cells and plated in 3 cm dishes at an initial density of 5×10^5 cells/mL (3 mL). Cells were treated with Tellimagrandin II to final concentrations of 0, 10, 20, 30, 40 and 50 μM, and then incubated at 37° C. with 5% CO2 for 12 and 24 hours.
Cells were centrifuged at a speed of 700 rpm for 5 min at 4° C. and washed once with PBS. Cells were fixed by drop-wise addition of 70% ethanol into the cell suspension. After 16˜18 hours, the ethanol-suspended cells were centrifuged at a speed of […] for 5 minutes at 4° C. and the ethanol decanted thoroughly. Cells were resuspended in PBS containing RNase A (10 μg/mL) and 1% Triton X-100 and incubated at 37° C. in a 5% CO2 incubator for 30 minutes to 1 hour. For propidium iodide (PI) staining, cells were centrifuged at 3,500 rpm for 5 minutes at room temperature and resuspended in 600 μL PBS. 25 μL of PI (20 μg/mL) solution was added to the mixture and incubated at room temperature in the dark for 1 hour. […]
In general terms: A flow cytometer gives signals particle by particle.

Experiment [7] has as its system LPS-induced PGE2 in RAW264.7 cells. The experiment can be described thus: Prostaglandin E2 (PGE2) assay. Format: cell-based, mouse. Conditions: 25 or 50 μM added 30 minutes before LPS. The protocol: One milliliter (1 mL) of murine macrophage cell line RAW264.7 (4×10^5 cells/mL) was seeded on a 12-well plate overnight. After overnight incubation, cells were serum starved in DMEM medium containing 2% Fetal Bovine Serum (FBS) for 3 hours. Then, Tellimagrandin II was added so that final concentrations of 10, 25 and 50 μM were obtained. Thus, after a 30-min incubation, murine macrophage cells were treated with LPS for 16 h and the cell culture supernatant was collected. Cell-free supernatants were diluted and PGE 2 in culture supernatants were detected by using a PGE2 assay kit (R&D system). The purpose of the study was to evaluate the LPS-induced PGE2 expression by co-treating with Tellimagrandin II.

The subject of experiment [8] is K-562 cells. In words: ROS test (DCF-DA). It counts as cell-based, human. To be noted: 40 μM; 2 hours. The method, then:
A radical specific fluorescent dye, 2′,7′-dichlorofluorescein (DCF-DA) was used to detect H2O2/NO-based radicals or O2— in cells respectively.
A total of 3 mL cell solution at the concentration of 1×10^6 K-562 cells per mL was cultured with 6 cm cell culture plates in an incubator supplied with 5% CO2 at 37° C. for 30 minutes so that cells could adapt to the environment. Tellimagrandin II solutions of different concentrations were added by order so that the final concentrations are 0, 30, 40 and 50 μM respectively. The solution was placed in incubator with 5% CO2 at 37° C. for 2 hours before being centrifuged at 3,500 rpm at 4° C. for 5 minutes and then being rinsed by PBS once. 2′,7′-dichlorofluorescein (DCF-DA) was added before the solution was put into dark incubator for 45 minutes and then rinsed by PBS once again. Finally, 1 mL PBS was used to resuspend the cells before BD FACScan was used to detect the fluorescent signal.

In the case of `O=C(OC1O[C@@H]2COC(=O)c3cc(O)c(O)c(O)c3-c3c(cc(O)c(O)c3O)C(=O)O[C@H]2[C@H](OC(=O)c2cc(O)c(O)c(O)c2)[C@H]1OC(=O)c1cc(O)c(O)c(O)c1)c1cc(O)c(O)c(O)c1` (some centres unmarked) [Tellimagrandin II], the MIC in experiment [1] was 128 µg/mL; in experiment [2], 128 µg/mL; in experiment [3], 128 µg/mL; in experiment [4] it was 64 µg/mL. Also, the “DNA fragmentation, DNA ladder electrophoresis” value in experiment [5] was “DNA fragmentation occurred”. Also, in experiment [6], the “percentage of the sub-G1 and G2/M-phase cells” value is recorded as “increased in Tellimagrandin II treatments dose-dependently”. For the same compound, in experiment [7], the “expression of PGE2” value is reported as “significantly reduced the expression of PGE2”. Besides, the “ROS in K-562 cells” value in experiment [8] is “observed to increase”.

Values taken from US8975234B2, “Anti-bacterial infection, inflammation, and leukemia composition and use thereof” (priority 2011, dated 2015).
